The text below walks through data of patent publication US20240261243A1, “NITRIC OXIDE DONORS, COMPOSITIONS, AND METHODS OF USE” (priority 2020, published 2024).

Where “and” joins values, the source holds several entries; their conditions need not be identical. Equal values may be shown once.

Data set [1] is described as follows: NO release half-life of diazeniumdiolate NO donors in aqueous media at pH 7.4. The format is physicochemical.
From the text: The rate of nitric oxide release from diazeniumdiolates can be controlled using a variety of structural features.
In data set [2] the test system is P. aeruginosa biofilms. Nature of the data set: Biofilm eradication (MBEC) on peg lid.
For data set [3] the following is noted: N-methyl amine; cited from earlier work.
The target of data set [4] is angiotensin-converting enzyme 2 (ACE2) (Homo sapiens, UniProt Q9BYF1). To be noted: ACE2 inhibitor from foodstuffs; cited from earlier work.
Sequence of angiotensin-converting enzyme 2 (ACE2) (Q9BYF1 18-805): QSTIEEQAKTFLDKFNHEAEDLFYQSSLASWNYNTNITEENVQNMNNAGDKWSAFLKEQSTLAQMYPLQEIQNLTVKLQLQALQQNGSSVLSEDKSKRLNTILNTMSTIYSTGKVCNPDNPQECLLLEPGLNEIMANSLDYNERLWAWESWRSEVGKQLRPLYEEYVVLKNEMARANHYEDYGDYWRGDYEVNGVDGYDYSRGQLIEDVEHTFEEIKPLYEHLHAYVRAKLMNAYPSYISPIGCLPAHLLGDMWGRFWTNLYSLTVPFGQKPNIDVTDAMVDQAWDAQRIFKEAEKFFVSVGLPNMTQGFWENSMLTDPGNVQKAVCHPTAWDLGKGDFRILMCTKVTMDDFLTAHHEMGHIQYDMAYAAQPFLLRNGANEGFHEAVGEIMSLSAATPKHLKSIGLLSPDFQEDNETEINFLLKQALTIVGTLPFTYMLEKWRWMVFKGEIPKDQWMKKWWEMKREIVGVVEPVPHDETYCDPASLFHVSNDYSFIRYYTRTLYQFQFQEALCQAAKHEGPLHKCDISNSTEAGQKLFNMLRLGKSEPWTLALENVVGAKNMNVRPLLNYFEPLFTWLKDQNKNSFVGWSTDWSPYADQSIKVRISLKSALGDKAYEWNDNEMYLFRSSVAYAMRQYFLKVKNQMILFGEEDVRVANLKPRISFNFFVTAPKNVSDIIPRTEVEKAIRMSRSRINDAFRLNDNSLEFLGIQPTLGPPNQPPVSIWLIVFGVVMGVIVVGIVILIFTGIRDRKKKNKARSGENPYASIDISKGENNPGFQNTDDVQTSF
The subject of data set [5] is P. aeruginosa strain PAK.
Method: All test articles are prepared at 4×→diluted 1:1 when other TA is added (2×), and diluted 1:1 again to 1× when bacteria are added
Experimental Design: The MIC of BIOC76 and Gallium nitrate individually, then set up a checkerboard assay testing 49 combinations of BIOC76 and Gallium nitrate concentrations against 10^6 CFU/ml P. aeruginosa strain PAK. Plates were incubated at 37° C. for 18-24 h, and growth was assessed visually.
Data set [6] can be described thus: NO storage and release measurement (chemiluminescence nitric oxide analyzer). The class given is physicochemical. Here is the method: N-diazeniumdiolates NO scaffolds are pH-triggered NO-release donors. Reacting with proton in the physiological condition (e.g., 37° C., pH 7.4), 1 mole of N-diazeniumdiolate regenerates 1 mole of the parent secondary amine compounds and two moles of NO radicals. The real-time detection of NO was performed by using a chemiluminescence-based nitric oxide analyzer (NOA). The total NO storage and dissociation kinetics of water-soluble NO Donors were measured in physiological condition (pH 7.40, 37° C.). The resulting NO-release parameters (e.g., total NO storage, half-life of NO release, maximum flux, and conversion efficiency) were evaluated for suitability as a pharmaceutical product.
Transfer the solution into the high-pressure vessel and purge the headspace with nitrogen. Mix the solution and set nitric oxide pressure to 25 bar (temp 20° C.). Allow the reaction to run for minimum of 3 days. Stop the reaction by venting the NO. Precipitate the reaction product in acetone (10:1 acetone:reaction mixture). Filter the precipitate and vacuum dry.
We sought to determine whether an NO donor and gallium nitrate have antimicrobial synergy against a lab strain of P. aeruginosa (PAK). The Checkerboard assay (described herein) was used with a hepta-substituted cyclodextrin-based NO donor (hereinafter referred to as BIOC76) having approximately ˜4.7 μmol NO/mg dry powder.

Data set [7] concerns P. aeruginosa strains. Briefly: MIC/MBC of BIOC76 and gallium citrate alone against 21 strains. To be noted: for MBC Rep 1 / MIC Rep 1: alone. The format is cell-based, Pseudomonas aeruginosa. The text has this: Determined the MIC of each test article individually against the strains being tested using the CLSI MIC/MBC method.
In this study, we established the MIC/MiBC's of BIOC76 and gallium citrate alone against each of 21 P. aeruginosa strains. […] The activity of both compounds is also strain-dependent. The results are as follows (the species for each strain is Pseudomonas aeruginosa: […]

In data set [8] the test system is P. aeruginosa (PAK). Nature of the data set: Combination MIC/MBC assay, BIOC76 with fixed gallium citrate. The class given is cell-based, Pseudomonas aeruginosa. To be noted: PAK; alone. Here is the method:
Combination MIC/MBC assays are useful when you want to look at only a few concentrations of one compound (Gallium citrate) combined with many concentrations of the second compound (BIOC76).
This method also allows us to see the change in both the MIC and MBC of a drug when in combination with another drug. Checkerboard assays only allow us to see changes in the MIC's.
Test articles are added to a 96-well plate so that when a 2× bacterial culture (prepared to 10^6 CFU/ml) is added, the final concentration in all wells was 1×.
All test articles are prepared at 4×→diluted 1:1 when other TA is added (2×) and diluted 1:1 again to 1× when bacteria are added.
TA #1 (Gallium citrate) is prepared and added to entire rows of a plate at a single concentration.
TA #2 (BIOC76) in then prepared and serially diluted in TA #1, so there are 2-fold dilutions of TA #2 combined with a single concentration of TA #1.
Plates were incubated at 37° C. for 18-24 h.
The ΔMIC/IBC is used to show the change in the MIC/IBC of BIOC76 when in combination with Gallium citrate (compared to when BIOC76 is used alone).
ΔMIC/MBC is the fold-decrease in BIOC76 concentration as a result of the combination.
We concluded BIOC76 and gallium citrate maintain synergistic activity so long as the gallium concentration is at least about 0.005 to about 0.02 mg/ml. In this experimental, we set up MIC/MBC assay and serially diluted BIOC76 in rows with fixed concentrations of gallium citrate. […] The results are shown in FIG. 6, and in the following tables: […]

Where [9] appears, read: PAK (N0049), 3-log reduction in biofilm.

Take `O=NN(O)N1C2CCC1c1ccccc12` [Entry 50]: in data set [1] (vs entry 23), the “fold more stable than monocyclic dimethyl-substituted pyrrolidine analog” value was found to be 8 fold.

For the compound `NC[C@H]1O[C@H](O[C@H]2[C@H](O)[C@@H](O[C@H]3O[C@H](CO)[C@@H](O)[C@H](N)[C@H]3O)[C@H](N)C[C@@H]2N)[C@H](N)C[C@@H]1O` [Tobra, Tobramycin], the “MBEC of Tobra” value in data set [2] (setting [9]) was 8 µg/mL and 4 µg/mL.

Turning to `C[C@@H]1CCC[C@H](C)N1C` [N-methyl-cis-2,6-dimethylpiperidine], the pKa in data set [3] is reported as 9.35.

For the compound `N[C@@H](CCN[C@@H](CCN1CC[C@H]1C(=O)O)C(=O)O)C(=O)O` [Nicotianamine], the IC50 in data set [4] was 84 nM.

Regarding `O=[N+]([O-])[O-].O=[N+]([O-])[O-].O=[N+]([O-])[O-].[Ga+3]` [Gallium nitrate, gallium nitrate, reference compound], the “MIC Ga(NO3)3 alone” value in data set [5] was found to be 65 µg/mL. For the same compound, the “MIC Ga(NO3)3 combo” value in data set [5] (in combination with BIOC76) amounted to 15 µg/mL. The “MBEC of Gallium nitrate” value in data set [2] (setting [9]) is more than 16 mg/mL. In addition, in data set [2] (biofilms grown under aerobic conditions), the “effectiveness against P. aeruginosa biofilms” value is “is not”.

On to `C[C@@H]1CCC[C@H](C)N1N(O)N=O` [Entry 22, 2,6 cis-dimethylpiperdine-NONOate], for which, in data set [1] (vs entry 19), the “rate of NO release, fold slower than unsubstituted piperidine” value is recorded as “over 60 fold”. In addition, in data set [6], the “Max Flux” value worked out at 4933 ppb/mg and the “NO Total” value worked out at 3.7 µmol/mg. Moreover, in data set [6] (physiological condition (pH 7.40, 37° C.), buffer not named, pH 7.4, NO release), the half-life was 1.3 h.

In the case of `O=C([O-])CC(O)(CC(=O)[O-])C(=O)[O-].[Ga+3]` [Gallium citrate, gallium citrate, reference compound], the “killing of P. aeruginosa strains (conclusion)” value in data set [7] (21 P. aeruginosa strains) is “does not kill any strain of P. aeruginosa”. The “mode of activity alone (conclusion)” value in data set [7] (21 P. aeruginosa strains) is on record as “largely bacteriostatic”. The “MBC Rep 1” value in data set [7] (strain N0047 (AR-BANK #103)), in data set [7] (strain N0048 (ATCC 19143)), in data set [7] (strain N0049 (PAK)), in data set [7] (strain N0050 (AR-BANK #0095)), in data set [7] (strain N0051 (AU32077)) and in data set [7] (strain N0053 (AU30524)) was more than 2000 µg/mL in each case. Moreover, the “MBC Rep 1” value in data set [7] (strain N0054 (AU26773)), in data set [7] (strain N0055 (AU22725)), in data set [7] (strain N0056 (AU22505)), in data set [7] (strain N0057 (AU35400)), in data set [7] (strain N0058 (AU32543)) and in data set [7] (strain N0059 (AR-BANK #0054)) was more than 2000 µg/mL in each case. Moreover, the “MBC Rep 1” value in data set [7] (strain N0069 (AR-BANK #0090)), in data set [7] (strain N0070 (AR-BANK #0092)), in data set [7] (strain N0071 (AR-BANK #0100)), in data set [7] (strain N0072 (AR-BANK #0105)), in data set [7] (strain N0079 (AR-BANK #0108)) and in data set [7] (strain N0080 (AR-BANK #0110)) was more than 2000 µg/mL each time. In addition, the “MBC Rep 1” value in data set [7] (strain N0081 (AR-BANK #0111)) and in data set [7] (strain N0099 (ATCC 29260)) was more than 2000 µg/mL in each case. The “MIC Rep 1” value in data set [7] (strain N0047 (AR-BANK #103)) is 250 µg/mL; in data set [7] (strain N0048 (ATCC 19143)), 2000 µg/mL; in data set [7] (strain N0049 (PAK)), 65 µg/mL; in data set [7] (strain N0050 (AR-BANK #0095)) it was 250 µg/mL; in data set [7] (strain N0051 (AU32077)), 250 µg/mL; in data set [7] (strain N0052 (AU25834)) it was more than 2000 µg/mL. The “MIC Rep 1” value in data set [7] (strain N0053 (AU30524)) was found to be 250 µg/mL; in data set [7] (strain N0054 (AU26773)), 125 µg/mL; in data set [7] (strain N0055 (AU22725)) it was 62.5 µg/mL; in data set [7] (strain N0056 (AU22505)) it was 1000 µg/mL; in data set [7] (strain N0057 (AU35400)), 65 µg/mL; in data set [7] (strain N0058 (AU32543)), 500 µg/mL. The “MIC Rep 1” value worked out at 32.5 µg/mL in data set [7] (strain N0059 (AR-BANK #0054)); 125 µg/mL in data set [7] (strain N0069 (AR-BANK #0090)); 62.5 µg/mL in data set [7] (strain N0070 (AR-BANK #0092)); 125 µg/mL in data set [7] (strain N0071 (AR-BANK #0100)); 500 µg/mL in data set [7] (strain N0072 (AR-BANK #0105)); 125 µg/mL in data set [7] (strain N0079 (AR-BANK #0108)). Moreover, the “MIC Rep 1” value was found to be 125 µg/mL in data set [7] (strain N0080 (AR-BANK #0110)), 250 µg/mL in data set [7] (strain N0081 (AR-BANK #0111)) and 125 µg/mL in data set [7] (strain N0099 (ATCC 29260)). Moreover, the “MIC GaCi” value in data set [8] was determined as 65 µg/mL.

For `CC(C)C[C@H](NC(=O)[C@@H]1CCCN1N(O)N=O)C(=O)NCC(N)=O` [Entry 49], the “diazeniumdiolate half-life, fold longer than unsubstituted pyrrolidine analog” value in data set [1] (vs entry 29) turned out to be 140 fold. Further, the “diazeniumdiolate half-life, fold longer than proline carboxylate analog” value in data set [1] (vs entry 30) is on record as “over 200 fold”.
